Source: patent US8513248B2, “5,6,7,8-tetrahydroimidazo[1,2-A]pyrazine derivatives as P2X7 modulators” (Glaxo Group Limited, priority 2009, dated 2013)
Structures can show the parent of a compound that is named as a salt.

Columns and labels:
[1] = molecular target: T1, human recombinant P2X7 receptors (Homo sapiens, UniProt Q99572); assay: Ethidium Accumulation Assay 1; format: cell-based; conditions: HEK293 cells stably expressing human recombinant P2X7; 1 mM ATP; ethidium 100 μM; read-out: Assay 1 (antagonist pIC50 for blocking ATP responses, ethidium accumulation) (converted)
T1 construct: expressed in transfected cells
T1 sequence (Q99572 1-595): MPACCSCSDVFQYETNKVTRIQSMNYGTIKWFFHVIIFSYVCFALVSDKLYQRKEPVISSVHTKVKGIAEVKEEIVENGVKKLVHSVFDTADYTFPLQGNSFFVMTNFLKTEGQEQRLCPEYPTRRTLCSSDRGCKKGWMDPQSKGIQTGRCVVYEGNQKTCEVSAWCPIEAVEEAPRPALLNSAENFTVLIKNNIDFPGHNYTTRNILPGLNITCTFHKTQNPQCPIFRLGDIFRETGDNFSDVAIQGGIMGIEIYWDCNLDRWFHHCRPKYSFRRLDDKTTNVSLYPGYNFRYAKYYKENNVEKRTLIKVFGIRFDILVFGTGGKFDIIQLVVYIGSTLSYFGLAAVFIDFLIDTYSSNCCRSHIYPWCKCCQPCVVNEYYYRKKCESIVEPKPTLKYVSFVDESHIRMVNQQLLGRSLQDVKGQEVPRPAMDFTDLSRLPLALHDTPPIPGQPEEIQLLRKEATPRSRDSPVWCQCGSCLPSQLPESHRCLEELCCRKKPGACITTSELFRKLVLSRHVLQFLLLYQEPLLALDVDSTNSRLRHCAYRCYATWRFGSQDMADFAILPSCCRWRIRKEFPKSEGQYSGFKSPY
Protocol: Studies were performed using NaCl assay buffer of the following composition: 140 mM NaCl, 10 mM HEPES [4-(2-hydroxyethyl)-1-piperazine-1-ethanesulfonic acid], 5 mM N-methyl-D-glucamine, 5.6 mM KCl, 10 mM D-glucose, 0.5 mM CaCl2 (pH 7.4).
Human Embryonic Kidney (HEK) 293 cells, stably expressing human recombinant P2X7 receptors, were grown in poly-D-lysine pretreated 96 well plates for 18-24 hours. […] The cells were washed twice with 350 μl of the assay buffer, before addition of 50 μl of the assay buffer containing the putative P2X7 receptor antagonist compound. (A small amount of dimethyl sulfoxide, for initially dissolving the compound, is optionally used and present in this […] test compound sample.) The cells were then incubated at room temperature (19-21° C.) for 30 min before addition of ATP and ethidium (100 μM final assay concentration). The ATP concentration was chosen to be close to the EC80 for the receptor type and was 1 mM for studies on the human P2X7 receptor. Incubations were continued for 8 or 16 min and were terminated by addition of 25 μl of 1.3M sucrose containing 4 mM of the P2X7 receptor antagonist Reactive Black 5 (Aldrich). […] Antagonist pIC50 values for blocking ATP responses were determined using iterative curve fitting techniques.

[2] = molecular target: T1, human recombinant P2X7 receptors; assay: Ethidium Accumulation Assay 2; format: cell-based; conditions: HEK293 cells stably expressing human recombinant P2X7; ATP solution with ethidium bromide; 16 min incubation; read-out: Assay 2 (antagonist pIC50 for blocking ATP responses, ethidium accumulation) (converted)
Protocol: Human Embryonic Kidney (HEK) 293 cells, stably expressing human recombinant P2X7 receptors, were grown in poly-D-lysine pretreated 96 well plates for 24 hours at 37° C.
The cells were washed with assay buffer (100 μL), before addition of 25 μL of assay buffer and then 25 ul of assay buffer containing the putative P2X7 receptor antagonist compound. The cells were then incubated at room temperature (19-21° C.) for 30 min before addition of ATP solution (50 μM). […] Antagonist pIC50 values for blocking ATP responses were determined using iterative curve fitting techniques.

Row | SMILES | IC50 [1] [nM] | IC50 [2] [nM]
1 | O=C(c1cccc(C(F)(F)F)c1Cl)N1CCn2ccnc2C1 [Example 1, 7-{[2-Chloro-3-(trifluoromethyl)phenyl]carbonyl}-5,6,7,8-tetrahydroimidazo[1,2-a]pyrazine] | < 100 | < 100
2 | O=C(c1cccc(C(F)(F)F)c1Cl)N1CCn2cc(C(F)(F)F)nc2C1 [Example 2, 7-{[2-Chloro-3-(trifluoromethyl)phenyl]carbonyl}-2-(trifluoromethyl)-5,6,7,8-tetrahydroimidazo[1,2-a]pyrazine] | < 100 | < 100
3 | Cc1cnc2n1CCN(C(=O)c1cccc(C(F)(F)F)c1Cl)C2 [Example 27, 7-{[2-Chloro-3-(trifluoromethyl)phenyl]carbonyl}-3-methyl-5,6,7,8-tetrahydroimidazo[1,2-a]pyrazine hydrochloride] | < 100 | < 100
4 | O=C(c1cccc(C(F)(F)F)c1Cl)N1CCn2c(nc(Br)c2-c2ccc(F)cc2)C1 [Example 34, 2-Bromo-7-{[2-chloro-3-(trifluoromethyl)phenyl]carbonyl}-3-(4-fluorophenyl)-5,6,7,8-tetrahydroimidazo[1,2-a]pyrazine] | < 100 | –
5 | O=C(c1cccc(C(F)(F)F)c1Cl)N1CCn2c(nc(C(F)(F)F)c2-c2ccc(F)cc2)C1 [Example 35, 7-{[2-chloro-3-(trifluoromethyl)phenyl]carbonyl}-3-(4-fluorophenyl)-2-(trifluoromethyl)-5,6,7,8-tetrahydroimidazo[1,2-a]pyrazine] | < 100 | –
6 | O=C(c1ccc(Cl)cc1Cl)N1CCn2c(nc(C(F)(F)F)c2-c2ccc(F)cc2)C1 [Example 36, 7-[(2,4-dichlorophenyl)carbonyl]-3-(4-fluorophenyl)-2-(trifluoromethyl)-5,6,7,8-tetrahydroimidazo[1,2-a]pyrazine] | < 501 | –
7 | O=C(c1ccc(F)cc1Cl)N1CCn2c(-c3cnccn3)cnc2C1 [Example 37, 7-[(2-chloro-4-fluorophenyl)carbonyl]-3-(2-pyrazinyl)-5,6,7,8-tetrahydroimidazo[1,2-a]pyrazine] | < 10 | –
8 | O=C(c1cccc(C(F)(F)F)c1Cl)N1CCn2c(-c3cnccn3)cnc2C1 [Example 38, 7-{[2-chloro-3-(trifluoromethyl)phenyl]carbonyl}-3-(2-pyrazinyl)-5,6,7,8-tetrahydroimidazo[1,2-a]pyrazine] | < 10 | –
9 | O=C(c1cccc(C(F)(F)F)c1Cl)N1CCn2c(-c3nccs3)cnc2C1 [Example 39, 7-{[2-chloro-3-(trifluoromethyl)phenyl]carbonyl}-3-(1,3-thiazol-2-yl)-5,6,7,8-tetrahydroimidazo[1,2-a]pyrazine] | < 10 | –
10 | O=C(c1cccc(C(F)(F)F)c1Cl)N1CCn2c(-c3ncccn3)cnc2C1 [Example 41, 7-{[2-chloro-3-(trifluoromethyl)phenyl]carbonyl}-3-(2-pyrimidinyl)-5,6,7,8-tetrahydroimidazo[1,2-a]pyrazine] | < 10 | –
11 | O=C(c1cccc(C(F)(F)F)c1Cl)N1CCn2c(-c3cscn3)cnc2C1 [Example 42, 7-{[2-chloro-3-(trifluoromethyl)phenyl]carbonyl}-3-(1,3-thiazol-4-yl)-5,6,7,8-tetrahydroimidazo[1,2-a]pyrazine] | < 10 | –
12 | O=C(c1cccc(C(F)(F)F)c1Cl)N1CCn2c(Cl)cnc2C1 [Example 43, 3-chloro-7-{[2-chloro-3-(trifluoromethyl)phenyl]carbonyl}-5,6,7,8-tetrahydroimidazo[1,2-a]pyrazine] | < 100 | –
13 | O=C(c1ccc(Cl)cc1Cl)N1CCn2c(Cl)cnc2C1 [Example 44, 3-chloro-7-[(2,4-dichlorophenyl)carbonyl]-5,6,7,8-tetrahydroimidazo[1,2-a]pyrazine] | < 501 | –
14 | O=C(c1cccc(C(F)(F)F)c1Cl)N1CCn2c(nc(Cl)c2Cl)C1 [Example 45, 2,3-dichloro-7-{[2-chloro-3-(trifluoromethyl)phenyl]carbonyl}-5,6,7,8-tetrahydroimidazo[1,2-a]pyrazine] | < 10 | –
